Consider 2 substances from patent US20260069671A1, “MICELLE COMPRISING AMPHIPHILIC PEPTIDE, AND ANTIGEN CARRIER NANOPARTICLE USING SAME” (RTAB CO., LTD., priority 2022, published 2026).

Series [1] can be described thus: Nanoparticle size measurement with Zetasizer Nano ZS. The class given is physicochemical. The following applies: diluted in ultrapure water, room temperature, triplicate mean +/- standard deviation. As to the method:
Recombinant amphiphilic peptides and hapten peptides were produced and provided by Anygen in Gwangju, Korea. In order to prepare nanoparticles (particulate soluble hapten) using amphiphilic peptides, amphiphilic peptides (peptides of SEQ ID NOs: 1 to 4, respectively) were dissolved in distilled water at a concentration of 4 mg/mL. Then, hapten peptides (peptides of SEQ ID NOs: 5 to 11, respectively) were dissolved in distilled water at a concentration of 0.5 mg/mL. Afterwards, a fixed amount of hapten (50 μg) was mixed with two different amounts of amphiphilic peptide at a ratio of 3:1 and 1:3 (w/w) and incubated for 30 minutes at room temperature (25° C.).
In order to characterize the sizes of amphiphilic peptides and nanoparticles, the diameters of micelles and nanoparticles formed by amphiphilic peptides (carriers) were measured with a Zetasizer Nano ZS system (Malvern Instruments, Malvern, UK). After digestion, the micelle stock solution was added to the cuvette. After 30-minute incubation, nanoparticles were diluted to a final volume of 1 mL. The average size was then analyzed with Dispersion Technology software 4.3. Nanoparticles were diluted using ultrapure water (refractive index 1.33, viscosity 0.89) and used for analysis at room temperature. Observations were presented as triplicate means +/−standard deviation.

The test system of series [2] is hapten and CD8 specific T cells. The series can be described thus: Live cell flow cytometry of hapten-specific cytotoxic T cells in splenocytes of immunized mice. The class given is in vivo, mouse. As for the experimental part:
(§1) Female BALB/C mice were purchased from Nara Biotech, Seoul, Korea, were 6 weeks old, and were bred under pathogen-free conditions. This study was conducted in accordance with the strict guidelines for the care and use of laboratory animals of the National Institutes of Health. The protocol was approved by the Animal Care Committee of Hanyang University Animal Hospital. For immunization, nanoparticles were emulsified with aluminum hydroxide (20 mg/100 μL, Sigma-Aldrich, St Louis, MO, USA). The mice were injected with 150 μg carrier dissolved in 150 μL phosphate buffered saline (PBS). The mice were injected with 50 μg hapten dissolved in 150 μL PBS. The mice were injected with 3:1 (w/w) nanoparticles (150 μg carrier and 50 μg hapten) combined with 150 μL PBS and 40 mg aluminum hydroxide. The mice were injected with 1:3 (w/w) nanoparticles (16.67 μg carrier and 50 μg hapten) combined with 150 μL PBS and 40 mg aluminum hydroxide. […] Serum was collected from centrifuged blood and frozen at −20° C. until being analyzed by ELSIA. […] Serum was collected from centrifuged blood and frozen at −20° C. until being analyzed by dot blot. […]
(§2) In order to identify nanoparticle (or hapten peptide)-specific lymphocyte populations, live cell flow cytometry was performed. […] After rinsing, the cells were filtered through a 40 μm cell strainer and counted. […]
On the technique in general: A flow cytometer gives signals particle by particle.

The test system of series [3] is BALB/c mice. The series can be described thus: ELISA of hapten peptide-specific IgG/IgM in blood of immunized mice. The settings on record: FIG. 6. The class given is in vivo, mouse. As for the experimental part: Female BALB/C mice were purchased from Nara Biotech, Seoul, Korea, were 6 weeks old, and were bred under pathogen-free conditions. This study was conducted in accordance with the strict guidelines for the care and use of laboratory animals of the National Institutes of Health. The protocol was approved by the Animal Care Committee of Hanyang University Animal Hospital. For immunization, nanoparticles were emulsified with aluminum hydroxide (20 mg/100 μL, Sigma-Aldrich, St Louis, MO, USA). The mice were injected with 150 μg carrier dissolved in 150 μL phosphate buffered saline (PBS). The mice were injected with 50 μg hapten dissolved in 150 μL PBS. The mice were injected with 3:1 (w/w) nanoparticles (150 μg carrier and 50 μg hapten) combined with 150 μL PBS and 40 mg aluminum hydroxide. The mice were injected with 1:3 (w/w) nanoparticles (16.67 μg carrier and 50 μg hapten) combined with 150 μL PBS and 40 mg aluminum hydroxide. All groups were injected by intraperitoneal route and again on day 21. Blood was collected through the jugular vein twice a week and centrifuged at 2,000 g for 20 minutes. Serum was collected from centrifuged blood and frozen at −20° C. until being analyzed by ELSIA. The mice were sacrificed on day 35. Whole blood was collected and centrifuged at 2,000 g for 20 minutes. Serum was collected from centrifuged blood and frozen at −20° C. until being analyzed by dot blot. […]

Series [4] has as its system CD19 positive B cells reacting with DDOST protein labeled with Alexa 647. Briefly: Live cell flow cytometry of hapten-specific B cells in splenocytes of immunized mice. The class given is in vivo, mouse. The settings on record: FIG. 11. As to the method:
as §1, §2

Series [5] concerns BALB/c mice. Briefly: Antibody detection by dot blot in serum of immunized mice. The class given is in vivo, mouse. The settings on record: serum of day 35, serially diluted recombinant protein, FIG. 10. As for the experimental part: as §1, with “hydroxide.” for “hydroxide. The mice were injected with 1:3 (w/w) nanoparticles (16.67 μg carrier and 50 μg hapten) combined with 150 μL PBS and 40 mg aluminum hydroxide.”
For determination of nanoparticle (or hapten peptide)-specific antibodies, serial dilutions of the recombinant protein were seeded on PVDF membranes at a concentration of 1.2 μg/μL to 12 ng/μL. […] Afterwards, the enhanced chemiluminescence solution (ECL) was treated with a membrane and directly analyzed with chemiscope 3400 (CLINX, China). […]

A further series concerns mice. The series can be described thus: Comparison of antibodies induced by nanoparticles and by the KLH conjugate method (FIG. 7). The following applies: compared with keyhole limpet hemocyanin method. The class given is in vivo, mouse. As for the experimental part: In addition, when the antibodies identified by Western blot were pre-reacted with the incomplete water-soluble antigen (lower panel of FIG. 7), all bands disappeared, confirming that all antibodies that were produced were specifically generated against the incomplete water-soluble antigen. After completion of the experiment, the spleens of the used animals were removed, splenocytes were isolated, and the analysis of B cells and T cells was performed through flow cytometry.

Substance “RRRVVVVVV (micelle self-assembly) [Carrier, amphiphilic peptide of three arginines and six valines forming micelles by self-assembly]” displayed a Z-ave in series [1] of 193.8 ± 97.3 nm·days. Besides, the “change in proportion of CD8 T cells reacting to the target protein” value in series [2] (FIG. 12) was “did not show significant changes”. In addition, the “hapten and CD8 specific T cells, lower gating group” value in series [2] (splenocytes day 35, FIG. 12) stood at 0.78%. The “expression of hapten peptide-specific IgG and IgM antibodies in mouse blood” value in the series on BALB/c mice [3] is reported as “no significant increase”. In series [4], the “change in ratio of B cells responding to the target protein” value is listed as “no significant change”. Also, the “hapten-specific B cells, lower gating group” value in series [4] (splenocytes day 35, Alexa 647 positive channel) stood at 15.1%. The “hapten peptide-specific IgG dots (dot blot)” value in the series with BALB/c mice [5] is reported as “no concentrated dots”.
In the case of keyhole limpet hemocyanin, the “antibody production (FIG. 7, top panel)” value in the series on mice is reported as “antibodies were produced”.
